Broadly, the inhibition is the drop in the measured response relative to a control, in per cent.

The structures appear in SMILES notation.

Sequence of S. aureus GyrB ATPase (P0A0K8 whole entry): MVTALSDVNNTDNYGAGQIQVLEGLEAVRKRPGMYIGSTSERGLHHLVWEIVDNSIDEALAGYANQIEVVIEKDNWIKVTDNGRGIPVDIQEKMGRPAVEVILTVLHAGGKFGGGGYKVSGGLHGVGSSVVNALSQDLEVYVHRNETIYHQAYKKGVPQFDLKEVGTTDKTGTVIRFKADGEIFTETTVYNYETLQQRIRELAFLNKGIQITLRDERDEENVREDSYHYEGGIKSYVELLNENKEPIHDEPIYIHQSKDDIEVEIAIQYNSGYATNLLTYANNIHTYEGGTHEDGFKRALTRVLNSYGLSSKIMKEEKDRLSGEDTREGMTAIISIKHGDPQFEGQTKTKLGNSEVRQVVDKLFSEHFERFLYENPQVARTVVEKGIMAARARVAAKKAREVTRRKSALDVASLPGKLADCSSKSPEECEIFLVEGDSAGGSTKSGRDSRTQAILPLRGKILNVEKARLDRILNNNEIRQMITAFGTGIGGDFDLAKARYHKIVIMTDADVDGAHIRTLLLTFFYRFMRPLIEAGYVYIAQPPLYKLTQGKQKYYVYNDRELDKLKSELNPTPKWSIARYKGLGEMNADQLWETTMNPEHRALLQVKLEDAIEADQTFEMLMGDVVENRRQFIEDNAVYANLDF
Sequence of S. aureus GyrB ATPase (P0AES4 whole entry, further chain): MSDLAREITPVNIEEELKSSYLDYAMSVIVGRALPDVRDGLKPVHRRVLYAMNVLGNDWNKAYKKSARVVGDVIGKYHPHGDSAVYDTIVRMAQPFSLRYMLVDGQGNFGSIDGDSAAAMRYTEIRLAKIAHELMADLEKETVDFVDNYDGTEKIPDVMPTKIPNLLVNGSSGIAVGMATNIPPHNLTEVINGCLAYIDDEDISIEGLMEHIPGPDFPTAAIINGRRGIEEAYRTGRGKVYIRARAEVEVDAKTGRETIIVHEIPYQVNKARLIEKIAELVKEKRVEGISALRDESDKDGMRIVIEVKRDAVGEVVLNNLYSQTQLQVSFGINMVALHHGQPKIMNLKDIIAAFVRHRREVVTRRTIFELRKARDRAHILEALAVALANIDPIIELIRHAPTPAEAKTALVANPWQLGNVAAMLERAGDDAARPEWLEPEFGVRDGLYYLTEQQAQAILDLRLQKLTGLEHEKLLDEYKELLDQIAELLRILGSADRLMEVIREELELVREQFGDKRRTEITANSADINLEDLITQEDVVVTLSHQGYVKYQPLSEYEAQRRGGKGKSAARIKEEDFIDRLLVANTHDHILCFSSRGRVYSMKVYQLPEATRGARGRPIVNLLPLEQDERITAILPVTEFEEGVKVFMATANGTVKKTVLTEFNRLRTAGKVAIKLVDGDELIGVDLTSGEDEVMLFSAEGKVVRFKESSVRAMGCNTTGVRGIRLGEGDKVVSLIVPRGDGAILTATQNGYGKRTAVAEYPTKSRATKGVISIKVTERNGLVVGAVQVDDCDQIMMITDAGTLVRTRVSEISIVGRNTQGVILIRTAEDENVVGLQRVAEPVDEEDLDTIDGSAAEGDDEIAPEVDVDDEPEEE

For this test, the target named is S. aureus GyrB ATPase (Staphylococcus aureus, UniProt P0A0K8). The test can be described thus: S. aureus (SAU) GyrB ATPase inhibition, malachite green phosphate detection (E. coli GyrA + S. aureus GyrB). The class given is biochemical. The following applies: compound concentration of 1.0 μM unless otherwise noted; average value where assay was carried out more than once; read-out: S. aureus (SAU) GyrB ATPase % Inhibition. An outline of the steps:
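Phosphate from ATP hydrolysis (500 μM ATP) read as malachite green/molybdate absorbance at 650 nm after acid quench. Reaction: 1.25 nM S. aureus GyrB plus 1.25 nM E. coli GyrA, sheared DNA, Hepes pH 7.5 with Mg2+. IC50 fitted over 10 concentrations, normalised to DMSO (2%) and novobiocin (2 μM) controls.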
Consider `CCNC(=O)Nc1cc(-c2nc(C(F)(F)F)cs2)c(-c2cncc(-c3nnc([C@H]4COCCN4)o3)c2)cn1` [Example 240, (R)-1-ethyl-3-(5′-(5-(morpholin-3-yl)-1,3,4-oxadiazol-2-yl)-4-(4-(trifluoromethyl)thiazol-2-yl)-3,3′-bipyridin-6-yl)urea], for which the inhibition at 1 µM came out at 95%. Take `CCNC(=O)Nc1cc(-c2nc(C(F)(F)F)cs2)c(-c2ccnc(-c3nnc([C@@H](N)C4CCCCC4)o3)c2)cn1` [Example 241, (S)-1-(2′-(5-(amino(cyclohexyl)methyl)-1,3,4-oxadiazol-2-yl)-4-(4-(trifluoromethyl)thiazol-2-yl)-3,4′-bipyridin-6-yl)-3-ethylurea]: the inhibition at 1 µM amounted to 97%. `CCNC(=O)Nc1cc(-c2nc(C(F)(F)F)cs2)c(-c2ccnc(-c3nnc([C@@H]4COCCN4)o3)c2)cn1` [Example 242, (S)-1-ethyl-3-(2′-(5-(morpholin-3-yl)-1,3,4-oxadiazol-2-yl)-4-(4-(trifluoromethyl)thiazol-2-yl)-3,4′-bipyridin-6-yl)urea]: the inhibition at 1 µM is 118%. Regarding `CCNC(=O)Nc1cc(-c2nc(C(F)(F)F)cs2)c(-c2ccnc(-c3nnc([C@H]4COCCN4)o3)c2)cn1` [Example 243, (R)-1-ethyl-3-(2′-(5-(morpholin-3-yl)-1,3,4-oxadiazol-2-yl)-4-(4-(trifluoromethyl)thiazol-2-yl)-3,4′-bipyridin-6-yl)urea], the inhibition at 1 µM was 122%. In the case of `CCNC(=O)Nc1cc(-c2nc(C(F)(F)F)cs2)c(-c2ccnc(-c3nnc([C@@H](NC)C(C)C)o3)c2)cn1` [Example 244, (S)-1-ethyl-3-(2′-(5-(2-methyl-1-(methylamino)propyl)-1,3,4-oxadiazol-2-yl)-4-(4-(trifluoromethyl)thiazol-2-yl)-3,4′-bipyridin-6-yl)urea] it was 96%; in that of `CCNC(=O)Nc1cc(-c2nc(-c3cccc(OC)n3)cs2)c(-c2cncc(S(N)(=O)=O)c2)cn1` [Example 247, 6′-(3-ethylureido)-4′-(4-(6-methoxypyridin-2-yl)thiazol-2-yl)-3,3′-bipyridine-5-sulfonamide], 100%. In the case of `CCNC(=O)Nc1cc(-c2nc(-c3cccc(OC)n3)cs2)c(-c2ccnc(-c3n[nH]c(=O)o3)c2)cn1` [Example 248, 1-ethyl-3-(4-(4-(6-methoxypyridin-2-yl)thiazol-2-yl)-2′-(5-oxo-4,5-dihydro-1,3,4-oxadiazol-2-yl)-3,4′-bipyridin-6-yl)urea], the inhibition at 1 µM is 104%. Turning to `CCNC(=O)Nc1cc(-c2nc(-c3cccc(OC)n3)cs2)c(-c2ccnc(-c3nnc(C)o3)c2)cn1` [Example 249, 1-ethyl-3-(4-(4-(6-methoxypyridin-2-yl)thiazol-2-yl)-2′-(5-methyl-1,3,4-oxadiazol-2-yl)-3,4′-bipyridin-6-yl)urea], the inhibition at 1 µM is 97%. In the case of `CCNC(=O)Nc1cc(-c2nc(-c3cccc(OC)n3)cs2)c(-c2cncc(-c3nnc(C)o3)c2)cn1` [Example 250, 1-ethyl-3-(4-(4-(6-methoxypyridin-2-yl)thiazol-2-yl)-5′-(5-methyl-1,3,4-oxadiazol-2-yl)-3,3′-bipyridin-6-yl)urea] it was 101%; in that of `CCNC(=O)Nc1cc(-c2nc(-c3cccc(OC)n3)cs2)c(-c2nc(-c3ncnn3C)c(-c3n[nH]c(=O)o3)s2)cn1` [Example 251, 1-ethyl-3-(4-(4-(6-methoxypyridin-2-yl)thiazol-2-yl)-5-(4-(1-methyl-1H-1,2,4-triazol-5-yl)-5-(5-oxo-4,5-dihydro-1,3,4-oxadiazol-2-yl)thiazol-2-yl)pyridin-2-yl)urea], 99%; in that of `CCNC(=O)Nc1cc(-c2nc(-c3cccc(OC)n3)cs2)c(-c2nc(-c3ncnn3C)c(-c3nnc(C)o3)s2)cn1` [Example 252, 1-ethyl-3-(4-(4-(6-methoxypyridin-2-yl)thiazol-2-yl)-5-(5-(5-methyl-1,3,4-oxadiazol-2-yl)-4-(1-methyl-1H-1,2,4-triazol-5-yl)thiazol-2-yl)pyridin-2-yl)urea], 99%.
